In US12077503B2, “Substituted cyclic amides and their use as herbicides” (FMC CORPORATION, priority 2015, dated 2024):

Tests used:
Format in all cases: in vivo
[1] = test system: giant foxtail (Setaria faberii); assay: Test A preemergence; details: Setaria faberi, pre-emergence, 240 h, 0 to 100 scale (0 no effect, 100 complete control), read-out: Plant response rating, Foxtail, Giant; for pest or weed control at 500 g/ha: 500 g ai/ha, preemergence; for pest or weed control at 125 g/ha: Preemergence, 125 g ai/ha
How it was run: (§1)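 Ratings of 0 (no effect) to 100 (complete control) come from visual comparison with untreated controls roughly 10 d after treatment. Test chemicals, formulated in a non-phytotoxic solvent mixture with surfactant, were applied either as a preemergence directed soil spray on seeded soil or postemergence to one- to two-leaf plants 2 to 10 cm tall.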

[2] = test system: ragweed (common ragweed, Ambrosia elatior); assay: Test A preemergence; details: Ambrosia artemisiifolia, pre-emergence, 240 h, 0 to 100 scale (0 no effect, 100 complete control), read-out: Plant response rating, Ragweed; for pest or weed control at 500 g/ha: 500 g ai/ha, preemergence; for pest or weed control at 125 g/ha: Preemergence, 125 g ai/ha
How it was run: as §1

[3] = test system: barnyardgrass (Echinochloa crus-galli); assay: Test A preemergence; details: Echinochloa crus-galli, pre-emergence, 240 h, 0 to 100 scale (0 no effect, 100 complete control), read-out: Plant response rating, Barnyardgrass; for pest or weed control at 500 g/ha: 500 g ai/ha, preemergence; for pest or weed control at 125 g/ha: Preemergence, 125 g ai/ha
How it was run: as §1

Kochia (Kochia scoparia) [4] = assay: Test A preemergence; details: Bassia scoparia, pre-emergence, 240 h, 0 to 100 scale (0 no effect, 100 complete control), read-out: Plant response rating, Kochia; for pest or weed control at 500 g/ha: 500 g ai/ha, preemergence; for pest or weed control at 125 g/ha: Preemergence, 125 g ai/ha
How it was run: as §1

[5] = test system: ryegrass, Italian (Italian ryegrass, Lolium multiflorum); assay: Test A preemergence; details: Lolium multiflorum, pre-emergence, 240 h, 0 to 100 scale (0 no effect, 100 complete control), read-out: Plant response rating, Ryegrass, Italian; for pest or weed control at 500 g/ha: 500 g ai/ha, preemergence; for pest or weed control at 125 g/ha: Preemergence, 125 g ai/ha
How it was run: as §1

[6] = test system: pigweed (Amaranthus retroflexus); assay: Test A preemergence; details: Amaranthus retroflexus, pre-emergence, 240 h, 0 to 100 scale (0 no effect, 100 complete control), read-out: Plant response rating, Pigweed; for pest or weed control at 500 g/ha: 500 g ai/ha, preemergence; for pest or weed control at 125 g/ha: Preemergence, 125 g ai/ha
[7] = test system: giant foxtail (Setaria faberii); assay: Test A postemergence; details: Setaria faberi, post-emergence, 240 h, Postemergence; for pest or weed control at 125 g/ha: 125 g ai/ha, visual rating about 10 d after treatment, read-out: Foxtail, Giant plant response rating (0 to 100 scale); for pest or weed control at 500 g/ha: 500 g ai/ha, visual injury, 0 to 100 scale (0 no effect, 100 complete control), approx. 10 d, read-out: Plant response rating, Foxtail, Giant
How it was run: as §1

[8] = test system: ragweed (common ragweed, Ambrosia elatior); assay: Test A postemergence; details: Ambrosia artemisiifolia, post-emergence, 240 h, Postemergence; for pest or weed control at 125 g/ha: 125 g ai/ha, visual rating about 10 d after treatment, read-out: Ragweed plant response rating (0 to 100 scale); for pest or weed control at 500 g/ha: 500 g ai/ha, visual injury, 0 to 100 scale (0 no effect, 100 complete control), approx. 10 d, read-out: Plant response rating, Ragweed
How it was run: as §1

[9] = test system: blackgrass (Alopecurus myosuroides); assay: Test A postemergence; details: Alopecurus myosuroides, post-emergence, 240 h, Postemergence; for pest or weed control at 125 g/ha: 125 g ai/ha, visual rating about 10 d after treatment, read-out: Blackgrass plant response rating (0 to 100 scale); for pest or weed control at 500 g/ha: 500 g ai/ha, visual injury, 0 to 100 scale (0 no effect, 100 complete control), approx. 10 d, read-out: Plant response rating, Blackgrass
How it was run: as §1

[10] = test system: barnyardgrass (Echinochloa crus-galli); assay: Test A postemergence; details: Echinochloa crus-galli, post-emergence, 240 h, Postemergence
How it was run: as §1

corn (Zea mays) = assay: Test A postemergence; details: Zea mays, post-emergence, 240 h, Postemergence; for plant injury at 125 g/ha: 125 g ai/ha, visual rating about 10 d after treatment, read-out: Corn plant response rating (0 to 100 scale); for Corn plant response rating (crop injury, 0 = no effect, 100 = complete kill) at 500 g/ha: 500 g ai/ha, visual injury, 0 to 100 scale (0 no effect, 100 complete control), approx. 10 d
How it was run: as §1

[11] = test system: Galium (catchweed bedstraw, Galium aparine); assay: Test A postemergence; details: Galium, post-emergence, 240 h, Postemergence; for pest or weed control at 125 g/ha: 125 g ai/ha, visual rating about 10 d after treatment, read-out: Galium plant response rating (0 to 100 scale); for pest or weed control at 500 g/ha: 500 g ai/ha, visual injury, 0 to 100 scale (0 no effect, 100 complete control), approx. 10 d, read-out: Plant response rating, Galium
How it was run: as §1

Kochia (Kochia scoparia) [12] = assay: Test A postemergence; details: Bassia scoparia, post-emergence, 240 h, Postemergence; for pest or weed control at 125 g/ha: 125 g ai/ha, visual rating about 10 d after treatment, read-out: Kochia plant response rating (0 to 100 scale); for pest or weed control at 500 g/ha: 500 g ai/ha, visual injury, 0 to 100 scale (0 no effect, 100 complete control), approx. 10 d, read-out: Plant response rating, Kochia
How it was run: as §1

[13] = test system: ryegrass, Italian (Italian ryegrass, Lolium multiflorum); assay: Test A postemergence; details: Lolium multiflorum, post-emergence, 240 h, Postemergence; for pest or weed control at 125 g/ha: 125 g ai/ha, visual rating about 10 d after treatment, read-out: Ryegrass, Italian plant response rating (0 to 100 scale); for pest or weed control at 500 g/ha: 500 g ai/ha, visual injury, 0 to 100 scale (0 no effect, 100 complete control), approx. 10 d, read-out: Plant response rating, Ryegrass, Italian
How it was run: as §1

[14] = test system: pigweed (Amaranthus retroflexus); assay: Test A postemergence; details: Amaranthus retroflexus, post-emergence, 240 h, Postemergence; for pest or weed control at 125 g/ha: 125 g ai/ha, visual rating about 10 d after treatment, read-out: Pigweed plant response rating (0 to 100 scale); for pest or weed control at 500 g/ha: 500 g ai/ha, visual injury, 0 to 100 scale (0 no effect, 100 complete control), approx. 10 d, read-out: Plant response rating, Pigweed
How it was run: as §1

[15] = test system: wheat (Triticum aestivum); assay: Test A postemergence; details: Triticum aestivum, post-emergence, 240 h, Postemergence; for plant injury at 125 g/ha: 125 g ai/ha, visual rating about 10 d after treatment, read-out: Wheat plant response rating (0 to 100 scale); for plant injury at 500 g/ha: 500 g ai/ha, visual injury, 0 to 100 scale (0 no effect, 100 complete control), approx. 10 d, read-out: Plant response rating, Wheat
How it was run: as §1

Compound | pest or weed control at 500 g/ha [1] | pest or weed control at 125 g/ha [1] | pest or weed control at 500 g/ha [2] | pest or weed control at 125 g/ha [2] | pest or weed control at 500 g/ha [3] | pest or weed control at 125 g/ha [3] | pest or weed control at 500 g/ha (Kochia (Kochia scoparia) [4]) | pest or weed control at 125 g/ha (Kochia (Kochia scoparia) [4]) | pest or weed control at 500 g/ha [5] | pest or weed control at 125 g/ha [5] | pest or weed control at 500 g/ha [6] | pest or weed control at 125 g/ha [6] | pest or weed control at 125 g/ha [7] | pest or weed control at 500 g/ha [7] | pest or weed control at 125 g/ha [8] | pest or weed control at 500 g/ha [8] | pest or weed control at 125 g/ha [9] | pest or weed control at 500 g/ha [9] | plant injury at 125 g/ha (corn (Zea mays)) | Corn plant response rating (crop injury, 0 = no effect, 100 = complete kill) at 500 g/ha (corn (Zea mays)) | further results
N#Cc1cc([C@H]2CNC(=O)[C@]2(O)C(=O)Nc2cccc(F)c2F)ccc1F [Compound 1374] | 0% | 0% | 0% | 0% | 0% | 0% | 0% | 0% | 0% | 0% | 0% | 0% | 0% | 0% | 0% | 0% | 0% | 0% | 0% | 0% | pest or weed control at 125 g/ha ([10]; 125 g ai/ha, visual rating about 10 d after treatment, read-out: Barnyardgrass plant response rating (0 to 100 scale, 0 no effect, 100 complete control)): 0%; pest or weed control at 500 g/ha ([10]; 500 g ai/ha, visual injury, 0 to 100 scale (0 no effect, 100 complete control), approx. 10 d, read-out: Plant response rating, Barnyardgrass): 50%; pest or weed control at 125 g/ha [11]: 0%; pest or weed control at 500 g/ha [11]: 0%; pest or weed control at 125 g/ha (Kochia (Kochia scoparia) [12]): 0%; pest or weed control at 500 g/ha (Kochia (Kochia scoparia) [12]): 0%; pest or weed control at 125 g/ha [13]: 0%; pest or weed control at 500 g/ha [13]: 0%; pest or weed control at 125 g/ha [14]: 0%; pest or weed control at 500 g/ha [14]: 0%; plant injury at 125 g/ha [15]: 0%; plant injury at 500 g/ha [15]: 0%
CN1C[C@H](c2ccc(C(F)(F)F)nc2)[C@@H](C(=O)Nc2ccc(F)c(F)c2F)C1=O [Compound 1373] | 100% | 100% | 100% | 100% | 100% | 90% | 100% | 100% | 90% | 60% | 100% | 90% | 90% | 90% | 60% | 70% | 50% | 60% | 90% | 90% | pest or weed control at 125 g/ha [11]: 60%; pest or weed control at 500 g/ha [11]: 60%; pest or weed control at 125 g/ha (Kochia (Kochia scoparia) [12]): 80%; pest or weed control at 500 g/ha (Kochia (Kochia scoparia) [12]): 80%; pest or weed control at 125 g/ha [13]: 30%; pest or weed control at 500 g/ha [13]: 50%; pest or weed control at 125 g/ha [14]: 70%; pest or weed control at 500 g/ha [14]: 90%; plant injury at 125 g/ha [15]: 50%; plant injury at 500 g/ha [15]: 60%
